The text below walks through data of patent publication US20220267288A1, “CARDIAC THERAPEUTIC” (priority 2019, published 2022).

One series concerns dogs. Briefly: Electrophysiological variables (AERP, VERP, repolarization periods) in halothane-anesthetized dogs. As to conditions: 3 mg/kg. Format: in vivo, dog. The procedure: Animals were obtained through Kitayama Labes Co., Ltd. (Nagano, Japan). All experiments were approved by the Toho University Animal Care and User Committee (No. 18-51-395) and performed according to the Guideline for the Care and Use of Laboratory Animals of Toho University.
The dogs were initially anesthetized with thiopental sodium (30 mg/kg, i.v.). After intubation with a cuffed endotracheal tube, anesthesia was maintained by inhalation of halothane (1% v/v) vaporized in oxygen with a volume-limited ventilator (SN-480-3; Shinano Manufacturing Co., Ltd., Tokyo, Japan). Tidal volume and respiratory rate were set at 20 mL/kg and 15 breaths/min, respectively. […] To prevent blood clotting, heparin calcium (100 IU/kg) was intravenously administered through a flush line of the catheter sheath placed at the right femoral vein.
The lead II electrocardiogram was obtained from the limb electrodes. The P-wave duration, PR interval, QRS width and QT interval were measured, and QT interval was corrected with Van de Water's formula: QTc=QT-0.087×(RR-1,000) with RR given in ms. The J-Tpeak and Tpeak-Tend were measured as follows. When the end of T-wave was obscure, we used the monophasic action potential (MAP) signal as a guide to estimate the end. The J-Tpeak was corrected for the heart rate with a coefficient as previously described (J-Tpeakc=J-Tpeak/RR^0.58 with RR given in seconds).
A standard 6-French, quad-polar electrodes catheter (Cordis-Webster Inc., Baldwin Park, Calif., USA) was positioned at the non-coronary cusp of the aortic valve through the left femoral artery to obtain the His bundle electrogram. Another 6-French, quad-polar electrode catheter (Cordis-Webster Inc.) was positioned at the sinus nodal areas of the right atrium through the right femoral vein to electrically pace and to record the local electrogram. A bi-directional steerable MAP recording/pacing combination catheter (1675P; EP Technologies, Inc., CA, USA) was positioned at the endocardium of the interventricular septum in the right ventricle through the left femoral vein to obtain MAP signals. The signals were amplified with a DC preamplifier (model 300; EP Technologies, Inc.). The duration of the MAP signals was measured as an interval, along a horizontal line corresponding to the diastolic baseline, from the MAP upstroke to the desired repolarization level. The interval (ms) at 90% repolarization was defined as MAP90.
The heart was electrically driven with a cardiac stimulator (SEC-3102; Nihon Kohden Co., Ltd.) via the pacing electrodes of the combination catheter placed in the right ventricle or the electrodes of the catheter placed at the right atrium. The stimulation pulses were rectangular in shape, 1-2 V (about twice the threshold voltage) and 1 ms duration. The MAP90 of the ventricle was measured during sinus rhythm (MAP90(sinus)) and at a pacing cycle length of 400 ms (MAP90(CL400)) and 300 ms (MAP90(CL300)). The atrial effective refractory period (AERP) and ventricular effective refractory period (VERP) were assessed with the programmed electrical stimulation. The pacing protocol consisted of 5 beats of basal stimuli in a cycle length of 400 ms followed by an extra stimulus of various coupling intervals. Starting in the late diastole, the coupling interval was shortened in 5-ms decrements until the additional stimulus could no longer elicit a response. The AERP and VERP were defined as the shortest coupling interval that could produce a response. The duration of the terminal repolarization period of the ventricle, reflecting phase-3 repolarization time of the action potential, was calculated by the difference between the MAP90(CL400) and VERP (terminal repolarization period=MAP90(CL400)−VERP) at the same site to estimate the extent of electrical vulnerability of the ventricular muscle.

Series [1] deals with T1, CYP2J2 (Homo sapiens, UniProt P51589).
T1 sequence (P51589 1-502): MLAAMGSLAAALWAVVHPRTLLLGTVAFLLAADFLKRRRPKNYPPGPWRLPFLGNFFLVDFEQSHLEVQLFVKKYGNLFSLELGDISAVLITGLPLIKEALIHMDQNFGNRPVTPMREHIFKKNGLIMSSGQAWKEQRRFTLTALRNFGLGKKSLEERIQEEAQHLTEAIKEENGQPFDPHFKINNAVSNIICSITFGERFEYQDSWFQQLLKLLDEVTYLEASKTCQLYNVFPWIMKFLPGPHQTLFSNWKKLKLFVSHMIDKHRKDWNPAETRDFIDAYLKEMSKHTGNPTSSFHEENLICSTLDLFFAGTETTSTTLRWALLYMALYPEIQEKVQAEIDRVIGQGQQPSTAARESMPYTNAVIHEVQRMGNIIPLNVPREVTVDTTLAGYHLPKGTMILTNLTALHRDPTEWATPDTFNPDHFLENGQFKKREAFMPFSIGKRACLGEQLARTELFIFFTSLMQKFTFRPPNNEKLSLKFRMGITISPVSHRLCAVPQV
Briefly: Time- and concentration-dependent inactivation (MBI) of CYP2J2, rivaroxaban as probe substrate. Format: biochemical. Set-up: purchased BD Gentest (Woburn, Mass.). The procedure: Incubations were conducted in triplicates in 96-well plates. Primary incubation mixtures comprising various concentrations of inhibitor (0-20 μM) were pre-incubated at 37° C. for 3 min with CYP450 enzymes (20 pmol/m L) and NADPH B in potassium phosphate buffer (100 mM, pH 7.4). To initiate the enzymatic reaction, 5 μL NADPH A was added to the primary incubation. The final primary incubation mixture volume was 100 μL and contained <1% v/v organic solvent. At different pre-incubation time points (3, 8, 15, 22, 30, and 45 min) after the addition of NADPH A, 5 μL aliquots of the primary incubation were transferred to 95 μL of the secondary incubation containing 50 μM rivaroxaban, the NADPH A and B, and potassium phosphate buffer (100 mM, pH 7.4) to yield a 20-fold dilution. The secondary incubation mixtures were incubated at 37° C. for 30 min with CYP2J2, before 80 μL aliquots were removed and quenched with an equal volume of ice-cold ACN containing 4 μM dexamethasone as IS. The samples were then centrifuged at 3220 g at 4° C. for 30 min before transferring the supernatant to a 96-well plate for liquid chromatography-tandem mass spectrometry (LC-MS/MS) analysis. The main rivaroxaban metabolite, morpholinone hydroxylated metabolite, was quantified using LC-MS/MS analysis.
The mean of triplicate peak area ratios for each concentration and pre-incubation time was normalized to that of 0 μM with the same pre-incubation time. The amount of rivaroxaban metabolite formed during the secondary incubation, a measure of the probe substrate activity remaining, was computed and the natural logarithm of this measure was plotted against inactivation pre-incubation time for each inactivator concentration. […]
In equation 1, kinact=maximum inactivation rate constant at infinite inactivator concentration (in min^−1); KI=concentration of inactivator at the half-maximal rate constant of inactivation (in μM); [I]=in vitro inactivator concentration (in μM). MBI potency (kinact/KI ratio, μM-1·min-1) against human recombinant CYP2J2 is determined for each compound. […]

Series [2] deals with H9c2 cells. The experiment in a line: Mitochondrial membrane potential (Δψm) dissipation, TMRM dye. The class given is cell-based. The note with it: pre-treatment, then dronedarone at 5 μM. The procedure:
(§1) H9c2 cell line was purchased from American Tissue Type Collection (ATCC) (Manassas, Va.). The cells were cultured in low-glucose DMEM growth media (Cat No: 31600, Thermo Fisher Scientific, Waltham, Mass.) supplemented with 1.5 g/L sodium bicarbonate, 25 mM HEPES, 10% fetal bovine serum (FBS) (GE Healthcare, Singapore), 100 units/mL penicillin, 100 μg/mL streptomycin and 250 ng/mL amphotericin B in 75-cm^2 tissue-culture flasks at 37° C. in a humidified atmosphere of 5% CO2. Cells were fed every 2-3 days and sub-cultured once 70-80% confluency was achieved to prevent the loss of differentiation potential. For differentiation, H9c2 cells were seeded at a density of 100,000 cells/well in 12-well plates. The cells were maintained for 1 day in low-glucose high-serum growth media to allow for cell attachment. Subsequently, cells were differentiated using 1 μM ATRA.
Dissipation of Δψm by each test compound was measured using mitochondrial permeable dye, tetramethylrhodamine methyl ester perchlorate (TMRM) (Thermo Fisher Scientific, Waltham, Mass.). […] The media was aspirated, the cells were washed with PBS and fluorescence was measured at 557 nm excitation and 570 nm emission wavelengths. […] The media was aspirated and then the cells were treated with dronedarone and the dissipation of Δψm by AADs was measured as described.

Series [3] has as its system H9c2 cells. The experiment in a line: Reduction of intracellular ATP (Mitochondrial ToxGlo) in differentiated H9c2 cells. The class given is cell-based. As to conditions: 0-1 μM pre-treatment 2 h, then dronedarone. Here is the method: as §1
H9c2 cells were seeded in a white chimney plate and differentiated. The media was changed to DMEM with 10 mM galactose, 2 mM glutamine (6 mM final), 5 mM HEPES, 1 mM sodium pyruvate, 100 U/mL penicillin, 100 μg/mL streptomycin, 0.25 μg/mL amphotericin B, 1% FBS, 1× insulin-transferrin-selenium and 1 μM ATRA for 48 h to overcome the Crabtree effect. […] The cytotoxicity and intracellular ATP content were measured concurrently using Mitochondrial ToxGlo™ kit (Promega, Madison, Wis.) using manufacturer's protocol. Mitochondrial ToxGlo™ assay measures the cell viability using fluorogenic peptide bis-alanine-alanine-phenylalanine-R110 (bis-AAF-R110). Bis-AAF-R110 is a selective peptide that measures protease activity in dead cells since it is impermeable to live cells. Here, the fluorescence derived from metabolized bis-AAF-R110 was measured at different concentrations of the test compounds and compared to control. As the concentration of cytotoxic compound increases, the number of dead cells increases, leading to a higher fluorescence signal. ATP is measured by adding the ATP Detection Reagent, resulting in cell lysis and generation of a luminescent signal proportional to the amount of ATP present. […]

Series [4] deals with CYP2J2.
Method: The human ES cell line (H7 ESCs) with a knocked in, constitutively expressed Genetically Encoded Calcium Indicator (GECI) GCaMP6s was maintained on matrigel coated plates in StemMACS™ iPS-Brew XF (Miltenyi Biotec) and passaged in clumps using Collagenase IV (1 mg/mL) enzymatic treatment. For differentiation, ESCs were passaged in single cells using Accutase (Nacalai Tesque), and subjected to the previously established small molecule based GiWi cardiomyocyte differentiation protocol. At Day 7, the media was replaced with RPMI1640 (HyClone) supplemented with B27 with insulin (B27+) (Miltenyi Biotec) for maturation and refreshed every 2 days. […] The cardiomyocytes (H7 CMs) were used for siRNA transfections on day 28. […]
RNA samples (250 ng) were reverse transcribed to obtain cDNA using High-Capacity cDNA Reverse Transcription Kit (Applied Biosystems, U.S.A.). qPCR was performed using the FAST SYBR Green Mix (Applied Biosystems, U.S.A.) on 5 ng of cDNA. ΔΔCT-based relative quantification method was adopted for qPCR analysis using the QuantStudio 5 384-well Block Real-Time PCR system (Applied Biosystems, U.S.A.). The threshold cycle was determined to be Data is presented as fold-change where CT values were normalised to β-ACT/N. Data presented are representative of two independent experiments with error bars indicative of the standard deviation (SD) unless otherwise stated.
The test system of another series is hiPSC-CM. Briefly: Extracellular field potential duration (FPD), multi electrode array. As to conditions: MEA, 0-10 μM. Format: cell-based, human. The procedure: Electrophysiological perturbations of hiPSC-CM were measured using multi electrode array (MEA) recording system (Multichannel Systems, Reutlingen, Germany). […] FPD measurements were normalized (corrected FPD [cFPD]) to the beating rate of the contracting areas with the Bazzet correction formula: cFPD=FPD/√(RR interval) as described previously^3. One-phase decay algorithm was used to plot corrected FPD curves.

`CC(C)NCC(O)c1ccc(NS(C)(=O)=O)cc1` (racemic) [dl-sotalol]: in the series on dogs (10 min after administration), the “ΔJ-Tpeakc (early repolarization period)” value is reported as “+35”, the “ΔTRP (terminal repolarization period)” value was −1 and the “ΔTpeak-Tend (late repolarization period)” value is “+17”. For the same compound, in the series with dogs (20 min after administration), the “Atrial selectivity (ΔAERP/ΔVERP)” value is reported as 1.1, the ΔAERP entry is given as “+60” and the ΔVERP result is listed as “+53”. In the series with dogs (30 min after administration), the “Atrial selectivity (ΔAERP/ΔVERP)” value was 1.0, the ΔAERP result was “+56” and the ΔVERP entry is “+54”.
For `Cl.[2H]c1c([2H])c(C(=O)c2c(CCCC)oc3ccc(NS(C)(=O)=O)cc23)c([2H])c([2H])c1OCCCN(CCCC)CCCC` [Compound 2], the “inactivation (MBI) of CYP2J2, in words” value on CYP2J2 [1] was “inactivated CYP2J2 in a time- and concentration-dependent manner”.
On to `CCCCCC1OC1C/C=C\C/C=C\C/C=C\CCCC(=O)O` (stereo not shown) [14,15-EET], for which the “effect of pre-treatment on dronedarone-induced Δψm dissipation” value in the series on H9c2 cells [2] was “concentration-dependent mitigation of Δψm dissipation”. Moreover, the “effect of pre-treatment on dronedarone-induced decrease in intracellular ATP” value with H9c2 cells [3] is “mitigated the decrease in intracellular ATP levels in a concentration-dependent manner”.
For “siRNA1: Accell self-delivery siRNA against CYP2J2, CUCAGGUGUAAUAUUGUUA, SEQ ID NO: 1 (Accell self-delivery modifications, pattern not given here)”, in the series with CYP2J2 [4], the “knockdown of CYP2J2, in words” value is “most effective”.
With `CC(C)COCC(CN(Cc1ccccc1)c1ccccc1)N1CCCC1` (stereo not shown) [bepridil], in the series with dogs (10 min after administration), the “Atrial selectivity (ΔAERP/ΔVERP)” value stood at 3.0, the ΔAERP entry is recorded as “+53” and the ΔVERP entry was “+55”. Also, in the series with dogs (20 min after administration), the “ΔJ-Tpeakc (early repolarization period)” value is given as “+31”, the “ΔTRP (terminal repolarization period)” value was “+4” and the “ΔTpeak-Tend (late repolarization period)” value is on record as “+14”.
`CCCCc1oc2ccccc2c1C(=O)c1cc(I)c(OCCN(CC)CC)c(I)c1` [Amiodarone]: in the series with dogs (15 min after administration), the “ΔJ-Tpeakc (early repolarization period)” value was −10, the “ΔTRP (terminal repolarization period)” value is reported as −11 and the “ΔTpeak-Tend (late repolarization period)” value is “+18”. In the series with dogs (60 min after administration), the ΔAERP result is reported as “+29” and the ΔVERP entry is reported as “+18”. Also, in the series with hiPSC-CM, the “effect on extracellular field potential duration (FPD)” value is “Dose-dependent increase in the FPD”.
